Assay results reported in ChEMBL document CHEMBL1131402, “Potent piperazine hydroxyethylamine HIV protease inhibitors containing novel P3 ligands” (Bioorg Med Chem Lett, 1998).

Legend:
MT4 [1] = experiment: Cytotoxicity against MT-4 cells was determined by using cytopathic effect assay; format: functional, Homo sapiens
[2] = test system: Human immunodeficiency virus 1; experiment: Anti-HIV activity was determined in MT-4 cells in the presence of 0% human serum using cytopathic effect assay; format: functional, organism-based; conditions: Human immunodeficiency virus 1, MT4
[3] = test system: Human immunodeficiency virus 1; experiment: Anti-HIV activity was determined in MT-4 cells in the presence of 50% human serum using cytopathic effect assay; format: functional, organism-based; conditions: Human immunodeficiency virus 1, MT4, Serum
[4] = target: Human immunodeficiency virus type 1 protease (Human immunodeficiency virus 1) (UniProt Q72874); experiment: Inhibition of HIV protease at 0.5 nM
Cytochrome P450 3A4 = Cytochrome P450 3A4 (Homo sapiens, UniProt P08684); experiment: […] inhibition of human liver microsomal Cytochrome P450 3A4; format: ADME
Cytochrome P450 3A4, sequence (P08684 whole entry): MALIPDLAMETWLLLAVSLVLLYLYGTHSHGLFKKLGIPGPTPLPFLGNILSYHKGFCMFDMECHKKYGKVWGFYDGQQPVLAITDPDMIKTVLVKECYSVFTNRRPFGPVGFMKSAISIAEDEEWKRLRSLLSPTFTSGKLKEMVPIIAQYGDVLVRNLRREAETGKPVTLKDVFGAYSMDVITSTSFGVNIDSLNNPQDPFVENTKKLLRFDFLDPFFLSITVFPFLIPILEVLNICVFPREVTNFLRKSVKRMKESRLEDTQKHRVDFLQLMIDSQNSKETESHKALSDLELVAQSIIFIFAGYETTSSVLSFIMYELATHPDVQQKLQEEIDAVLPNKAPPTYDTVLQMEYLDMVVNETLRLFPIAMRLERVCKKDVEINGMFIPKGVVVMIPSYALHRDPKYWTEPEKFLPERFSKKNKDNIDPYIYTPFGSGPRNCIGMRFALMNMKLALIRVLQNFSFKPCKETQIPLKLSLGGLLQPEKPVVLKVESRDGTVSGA

MT4 [5] = experiment: Anti-HIV activity was determined in MT-4 cells in the presence of 50% human serum using cytopathic effect assay; NA means not active; format: functional, cell-based
MT4 [6] = experiment: Cytotoxicity against MT-4 cells was determined by using cytopathic effect assay; NA means not active; format: functional, cell-based, Homo sapiens
[7] = target: Human immunodeficiency virus type 1 protease (Human immunodeficiency virus 1) (UniProt Q72874); experiment: Compound was tested for the inhibition of HIV protease at 97 nM
MT4 [8] = experiment: Anti-HIV activity was determined in MT-4 cells in the presence of 0% human serum using cytopathic effect assay; Not active; format: functional, cell-based
[9] = test system: Human immunodeficiency virus 1; experiment: Antiviral activity was assessed against M36M/I, I54I/V, V82F/A/S/T viral strains isolated from patient-313 pretreated with ritonavir(14 fold) at 85th day; format: functional, organism-based
[10] = test system: Human immunodeficiency virus 1; experiment: Antiviral activity was assessed against I54I/V, A71V, V82A, L90L/M viral strains isolated from patient-235 pretreated with ritonavir (4 fold) at 36th week; format: functional, organism-based
[11] = test system: Human immunodeficiency virus 1; experiment: Antiviral activity was assessed against K20K/R, 36M/I, 154V, A71A/V, V82T viral strains isolated from patient-129 pretreated with ritonavir(33 fold) at 16th week; format: functional, organism-based
[12] = test system: Human immunodeficiency virus 1; experiment: Antiviral activity was assessed against K20K/R, M36M/I, 154V/I, L63L/P, V82/A viral strains isolated from patient-131 pretreated with ritonavir(20 fold) at 28th week; format: functional, organism-based
[13] = test system: Human immunodeficiency virus 1; experiment: Antiviral activity was assessed against M36I, I54V, A71V, V82T viral strains isolated from patient-129 pretreated with ritonavir(14 fold) at 8th week; format: functional, organism-based
[14] = test system: Human immunodeficiency virus 1; experiment: Antiviral activity was assessed against M36M/I, V82F viral strains isolated from patient-313 pretreated with ritonavir(9 fold) at 57th day; format: functional, organism-based
[15] = target: Human immunodeficiency virus type 1 protease (Human immunodeficiency virus 1) (UniProt Q72874); experiment: Compound was tested for the inhibition of HIV protease at 27 nM
[16] = target: Human immunodeficiency virus type 1 protease (Human immunodeficiency virus 1) (UniProt Q72874); experiment: Compound was tested for the inhibition of HIV protease at 120 nM

| Compound | CCIC50 (MT4 [1]) [µM] | EC50 [2] [nM] | EC50 [3] [nM] | inhibition [4] [%] | also measured |
| --- | --- | --- | --- | --- | --- |
| COc1ccc(CN2CCN(C[C@@H](O)[C@H](Cc3ccccc3)NC(=O)[C@@H](NC(=O)OCc3cnc(C(C)C)s3)C(C)C)[C@H](C(=O)NC(C)(C)C)C2)cc1OC | 21 | 17 | 86 | 51 | – |
| CC(C)[C@H](NC(=O)OCc1cncs1)C(=O)N[C@@H](Cc1ccccc1)[C@H](O)CN1CCN(Cc2ccccc2)C[C@H]1C(=O)NC(C)(C)C | 53 | 17 | 104 | 40 | – |
| CC(C)[C@H](NC(=O)N(C)Cc1cncs1)C(=O)N[C@@H](Cc1ccccc1)[C@H](O)CN1CCN(Cc2cncs2)C[C@H]1C(=O)NC(C)(C)C | >100 | 259 | 211 | 50 | – |
| COc1cc(CN2CCN(C[C@@H](O)[C@H](Cc3ccccc3)NC(=O)[C@@H](NC(=O)N(C)Cc3csc(C(C)C)n3)C(C)C)[C@H](C(=O)NC(C)(C)C)C2)ccc1O | 20 | 41 | 242 | 63 | – |
| CC(C)c1nc(COC(=O)N[C@H](C(=O)N[C@@H](Cc2ccccc2)[C@H](O)CN2CCN(Cc3cccc4c3COC4)C[C@H]2C(=O)NC(C)(C)C)C(C)C)cs1 | 18 | 5 | 42 | 69 | IC50 (Cytochrome P450 3A4): 12000 nM |
| COc1ccc(CN2CCN(C[C@@H](O)[C@H](Cc3ccccc3)NC(=O)[C@@H](NC(=O)OCc3csc(C(C)C)n3)C(C)C)[C@H](C(=O)NC(C)(C)C)C2)cc1OC | 18 | 17 | 46 | 62 | – |
| CC(C)[C@@H](NC(=O)N(C)Cc1cncs1)C(=O)N[C@@H](Cc1ccccc1)[C@H](O)CN1CCN(Cc2cncs2)C[C@H]1C(=O)NC(C)(C)C | – | – | – | – | EC50 (MT4 [5]): Not Active; EC50 (MT4 [6]): Not Active; inhibition [7]: 50%; EC50 (MT4 [8]): Not Active |
| CC(C)c1nc(COC(=O)N[C@H](C(=O)N[C@@H](Cc2ccccc2)[C@H](O)CN2CCN(Cc3ccc(F)cc3)C[C@H]2C(=O)NC(C)(C)C)C(C)C)cs1 | 15 | 21 | 174 | 64 | – |
| CC(C)c1nc(COC(=O)N[C@H](C(=O)N[C@@H](Cc2ccccc2)[C@H](O)CN2CCN(Cc3nc4ccccc4[nH]3)C[C@H]2C(=O)NC(C)(C)C)C(C)C)cs1 | 18 | 46 | 1060 | 65 | – |
| CC(C)c1nc(CN(C)C(=O)N[C@H](C(=O)N[C@@H](Cc2ccccc2)C[C@H](O)[C@H](Cc2ccccc2)NC(=O)OCc2cncs2)C(C)C)cs1 [RITONAVIR] | 56 | 70 | 810 | – | EC50 [9]: 575 nM; EC50 [10]: 87 nM; EC50 [11]: 368 nM; EC50 [12]: 365 nM; EC50 [13]: 149 nM; EC50 [14]: 340 nM |
| Cc1nc(COC(=O)N[C@H](C(=O)N[C@@H](Cc2ccccc2)[C@H](O)CN2CCN(Cc3ccc(F)cc3)C[C@H]2C(=O)NC(C)(C)C)C(C)C)cs1 | 39 | 11 | 71 | 50 | – |
| CC(C)c1nc(COC(=O)N[C@H](C(=O)N[C@@H](Cc2ccccc2)[C@H](O)CN2CCN(Cc3cccc(O)c3)C[C@H]2C(=O)NC(C)(C)C)C(C)C)cs1 | 17 | 40 | 142 | 53 | – |
| CC(C)c1nc(COC(=O)N[C@H](C(=O)N[C@@H](Cc2ccccc2)[C@H](O)CN2CCN(Cc3ccc(O)cc3)C[C@H]2C(=O)NC(C)(C)C)C(C)C)cs1 | 19 | 47 | 226 | 54 | – |
| CCc1nc(COC(=O)N[C@H](C(=O)N[C@@H](Cc2ccccc2)[C@H](O)CN2CCN(Cc3ccc(OC)c(OC)c3)C[C@H]2C(=O)NC(C)(C)C)C(C)C)cs1 | 45 | 19 | 42 | 82 | – |
| Cc1nc(COC(=O)N[C@H](C(=O)N[C@@H](Cc2ccccc2)[C@H](O)CN2CCN(Cc3ccc4c(c3)OCO4)C[C@H]2C(=O)NC(C)(C)C)C(C)C)cs1 | 56 | 11 | 74 | 45 | – |
| CCc1ncc(COC(=O)N[C@H](C(=O)N[C@@H](Cc2ccccc2)[C@H](O)CN2CCN(Cc3ccc(OC)c(OC)c3)C[C@H]2C(=O)NC(C)(C)C)C(C)C)s1 | 50 | 16 | 132 | 37 | IC50 (Cytochrome P450 3A4): 35000 nM |
| CC(C)c1nc(CN(C)C(=O)N[C@H](C(=O)N[C@@H](Cc2ccccc2)[C@H](O)CN2CCN(Cc3cncs3)C[C@H]2C(=O)NC(C)(C)C)C(C)C)cs1 | >100 | 13 | 84 | 60 | – |
| CC(C)c1nc(COC(=O)N[C@H](C(=O)N[C@@H](Cc2ccccc2)[C@H](O)CN2CCN(Cc3ccccc3)C[C@H]2C(=O)NC(C)(C)C)C(C)C)cs1 | 45 | 22 | 80 | 61 | – |
| COc1ccc(CN2CCN(C[C@@H](O)[C@H](Cc3ccccc3)NC(=O)[C@@H](NC(=O)OCc3csc(C)n3)C(C)C)[C@H](C(=O)NC(C)(C)C)C2)cc1OC | 57 | 10 | 42 | 49 | IC50 (Cytochrome P450 3A4): 120000 nM |
| CC(C)c1nc(COC(=O)N[C@@H](C(=O)N[C@@H](Cc2ccccc2)[C@H](O)CN2CCN(Cc3cncs3)C[C@H]2C(=O)NC(C)(C)C)C(C)C)cs1 | 18 | 6000 | 26000 | – | inhibition [15]: 50% |
| CC(C)c1nc(COC(=O)N[C@H](C(=O)N[C@@H](Cc2ccccc2)[C@H](O)CN2CCN(Cc3cccnc3)C[C@H]2C(=O)NC(C)(C)C)C(C)C)cs1 | 59 | 12 | 67 | 69 | IC50 (Cytochrome P450 3A4): 2300 nM |
| COc1ccc(CN2CCN(C[C@@H](O)[C@H](Cc3ccccc3)NC(=O)[C@@H](NC(=O)OCc3cnc(C)s3)C(C)C)[C@H](C(=O)NC(C)(C)C)C2)cc1OC | 53 | 11 | 59 | 44 | – |
| CC(C)c1nc(COC(=O)N[C@H](C(=O)N[C@@H](Cc2ccccc2)[C@H](O)CN2CCN(Cc3cncs3)C[C@H]2C(=O)NC(C)(C)C)C(C)C)cs1 | 57 | 12 | 67 | 67 | IC50 (Cytochrome P450 3A4): 15000 nM |
| CC(C)c1nc(CN(C)C(=O)N[C@H](C(=O)N[C@@H](Cc2ccccc2)[C@H](O)CN2CCN(Cc3ccccc3)C[C@H]2C(=O)NC(C)(C)C)C(C)C)cs1 | 56 | 48 | 306 | 66 | – |
| CC(C)c1nc(COC(=O)N[C@H](C(=O)N[C@@H](Cc2ccccc2)[C@H](O)CN2CCN(Cc3ccncc3)C[C@H]2C(=O)NC(C)(C)C)C(C)C)cs1 | 56 | 17 | 76 | 73 | – |
| CC(C)[C@@H](NC(=O)N(C)Cc1cncs1)C(=O)N[C@@H](Cc1ccccc1)[C@H](O)CN1CCN(Cc2ccccc2)C[C@H]1C(=O)NC(C)(C)C | 56 | 3000 | 7000 | – | inhibition [16]: 50% |
| CC(C)[C@H](NC(=O)OCc1cncs1)C(=O)N[C@@H](Cc1ccccc1)[C@H](O)CN1CCN(Cc2cncs2)C[C@H]1C(=O)NC(C)(C)C | >100 | 57 | 75 | 45 | – |
